Source: patent US6737383B1, “Herbicidal oxadiazolidines” (priority 1999, dated 2004)

What was measured:
sugar beet = test: Test B pre/postemergence sugar beet; assay type: in vivo, Beta vulgaris; settings: Preemergence
Summary of the method: (§1)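 Test chemicals in a non-phytotoxic solvent mixture with surfactant were sprayed preemergence onto planted seeds and postemergence onto plants 2 to 18 cm tall (1- to 4-leaf stage). After twelve to sixteen days in a greenhouse, injury was visually rated against untreated controls from 0 (no effect) to 10 (complete control).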

rice = test: Test B flood test rice; assay type: in vivo, Oryza sativa
Summary of the method: (§2)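 Flood test on plants grown to the 2-leaf stage; treated plants kept in greenhouse twelve to sixteen days, then visually rated against controls on a 0 (no effect) to 10 (complete control) scale.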

smallflower flatsedge = test: Test B flood test smallflower flatsedge; assay type: in vivo, Cyperus difformis
Summary of the method: as §2

surinam grass = test: Test B pre/postemergence surinam grass; assay type: in vivo, Brachiaria decumbens
Summary of the method: as §1

cocklebur = test: Test B pre/postemergence cocklebur; assay type: in vivo, Xanthium strumarium
Summary of the method: as §1

rape = test: Test B pre/postemergence rape; assay type: in vivo, Brassica napus
Summary of the method: as §1

blackgrass = test: Test B pre/postemergence blackgrass; assay type: in vivo, Alopecurus myosuroides
Summary of the method: as §1

velvetleaf = test: Test B pre/postemergence velvetleaf; assay type: in vivo, Abutilon theophrasti; settings: Preemergence
Summary of the method: as §1

wild oat = test: Test B pre/postemergence wild oat; assay type: in vivo, Avena fatua; settings: Preemergence
Summary of the method: as §1

bedstraw = test: Test B pre/postemergence bedstraw; assay type: in vivo, Galium aparine
Summary of the method: as §1

crabgrass = test: Test B pre/postemergence crabgrass; assay type: in vivo, Digitaria sanguinalis
Summary of the method: as §1

duck salad = test: Test B flood test duck salad; assay type: in vivo, Heteranthera limosa
Summary of the method: as §2

bamyardgrass = test: Test B flood test barnyardgrass; assay type: in vivo, Echinochloa crus-galli
Summary of the method: as §2

corn = test: Test B pre/postemergence corn; assay type: in vivo, Zea mays
Summary of the method: as §1

wheat = test: Test B pre/postemergence wheat; assay type: in vivo, Triticum aestivum; settings: Preemergence
Summary of the method: as §1

morningglory = test: Test B pre/postemergence morningglory; assay type: in vivo, Ipomoea hederacea
Summary of the method: as §1

purple nutsedge = test: Test B pre/postemergence purple nutsedge; assay type: in vivo, Cyperus rotundus
Summary of the method: as §1

soybean = test: Test B pre/postemergence soybean; assay type: in vivo, Glycine max; settings: Preemergence
Summary of the method: as §1

giant foxtail = test: Test B pre/postemergence giant foxtail; assay type: in vivo, Setaria faberii
Summary of the method: as §1

pigweed = test: Test B pre/postemergence pigweed; assay type: in vivo, Amaranthus retroflexus
Summary of the method: as §1

[1] = Rate 31 g/ha, visual rating, scale 0 to 10 (0 no effect, 10 complete control)
[2] = Rate 62 g/ha, scale of 0 to 10 where 0 is no effect and 10 is complete control
[3] = Rate 250 g/ha, scale of 0 to 10 where 0 is no effect and 10 is complete control
[4] = Rate 125 g/ha, scale of 0 to 10 where 0 is no effect and 10 is complete control
[5] = Rate 62 g/ha, headed Pre-emergence (flood test species), scale 0 to 10 (0 no effect, 10 complete control)
[6] = Rate 125 g/ha, Pre-emergence, flood test species, scale 0 to 10 where 0 is no effect and 10 is complete control
[7] = Rate 250 g/ha, Pre-emergence, flood-test species, scale 0 to 10, 0 is no effect, 10 is complete control
[8] = Rate 500 g/ha, Pre-emergence, flood test species, scale 0 to 10 (0 no effect, 10 complete control)
[9] = Preemergence, Rate 31 g/ha, visual rating, scale 0 to 10 (0 no effect, 10 complete control)
[10] = Preemergence, Rate 62 g/ha, scale of 0 to 10 where 0 is no effect and 10 is complete control
[11] = Preemergence, Rate 250 g/ha, scale of 0 to 10 where 0 is no effect and 10 is complete control
[12] = Rate 31 g/ha, Postemergence, scale 0 to 10
[13] = Rate 62 g/ha, Postemergence, scale of 0 to 10 where 0 is no effect and 10 is complete control
[14] = Rate 125 g/ha, Preemergence, scale of 0 to 10 where 0 is no effect and 10 is complete control
[15] = Rate 125 g/ha, Postemergence, scale 0 to 10

CCN(CC)C(=O)Cn1c(=O)on(C(=O)N(c2ccc(F)cc2)C(C)C)c1=O [Compound 264] was tested, and the “Sugarbeets plant response rating” value (sugar beet; [1]) was 0, the “Sugarbeets plant response rating” value (sugar beet; [2]) was 0 and the “Sugarbeets plant response rating” value (sugar beet; [3]) was 1. For the same compound, the “Sugarbeets plant response rating” value (sugar beet; [4]) was 0, the “Rice plant response rating” value (rice; [5]) was 0 and the “Rice plant response rating” value (rice; [6]) was 0. For the same compound, the “Rice plant response rating” value (rice; [7]) was 0, the “Rice plant response rating” value (rice; [8]) was 1 and the “S. Flatsedge plant response rating” value (smallflower flatsedge; [5]) was 0. For the same compound, the “S. Flatsedge plant response rating” value (smallflower flatsedge; [6]) was 0, the “S. Flatsedge plant response rating” value (smallflower flatsedge; [7]) was 0 and the “S. Flatsedge plant response rating” value (smallflower flatsedge; [8]) was 0. For the same compound, the “B. signalgrass plant response rating” value (surinam grass; [9]) was 0, the “B. signalgrass plant response rating” value (surinam grass; [10]) was 0 and the “B. signalgrass plant response rating” value (surinam grass; [11]) was 5. The “B. signalgrass plant response rating” value (surinam grass; [12]) was 0, the “B. signalgrass plant response rating” value (surinam grass; [13]) was 0 and the “B. signalgrass plant response rating” value (surinam grass; Rate 125 g/ha, Postemergence, scale 0 (no effect) to 10 (complete control)) was 0. For the same compound, the “B. signalgrass plant response rating” value (surinam grass; [14]) was 0, the “Plant response rating (0 to 10; 0 is no effect, 10 is complete control), B. signalgrass” value (surinam grass; Rate 250 g/ha, Postemergence) was 0 and the “Cocklebur plant response rating” value (cocklebur; [9]) was 0. The “Cocklebur plant response rating” value (cocklebur; [10]) was 0, the “Cocklebur plant response rating” value (cocklebur; [11]) was 0 and the “Cocklebur plant response rating” value (cocklebur; [12]) was 0. For the same compound, the “Cocklebur plant response rating” value (cocklebur; [13]) was 0, the “Cocklebur plant response rating” value (cocklebur; [15]) was 0 and the “Cocklebur plant response rating” value (cocklebur; [14]) was 0. For the same compound, the “Plant response rating (0 to 10; 0 is no effect, 10 is complete control), Cocklebur” value (cocklebur; Rate 250 g/ha, Postemergence) was 0, the “Rape plant response rating” value (rape; [9]) was 0 and the “Rape plant response rating” value (rape; [10]) was 0. The “Rape plant response rating” value (rape; [11]) was 0, the “Rape plant response rating” value (rape; [12]) was 0 and the “Rape plant response rating” value (rape; [14]) was 0. For the same compound, the “Plant response rating (0 to 10; 0 is no effect, 10 is complete control), Rape” value (rape; Rate 250 g/ha, Postemergence) was 0, the “Blackgrass plant response rating” value (blackgrass; [9]) was 0 and the “Blackgrass plant response rating” value (blackgrass; [10]) was 0. For the same compound, the “Blackgrass plant response rating” value (blackgrass; [11]) was 4, the “Blackgrass plant response rating” value (blackgrass; [12]) was 0 and the “Blackgrass plant response rating” value (blackgrass; [13]) was 2. For the same compound, the “Blackgrass plant response rating” value (blackgrass; [15]) was 2, the “Blackgrass plant response rating” value (blackgrass; [14]) was 0 and the “Plant response rating (0 to 10; 0 is no effect, 10 is complete control), Blackgrass” value (blackgrass; Rate 250 g/ha, Postemergence) was 3. The “Velvetleaf plant response rating” value (velvetleaf; [1]) was 0, the “Velvetleaf plant response rating” value (velvetleaf; [2]) was 0 and the “Velvetleaf plant response rating” value (velvetleaf; [3]) was 0. For the same compound, the “Velvetleaf plant response rating” value (velvetleaf; [4]) was 0, the “Wild oats plant response rating” value (wild oat; [1]) was 0 and the “Wild oats plant response rating” value (wild oat; [2]) was 2. The “Wild oats plant response rating” value (wild oat; [3]) was 5, the “Wild oats plant response rating” value (wild oat; [4]) was 4 and the “Bedstraw plant response rating” value (bedstraw; [9]) was 0. The “Bedstraw plant response rating” value (bedstraw; [10]) was 0, the “Bedstraw plant response rating” value (bedstraw; [11]) was 0 and the “Bedstraw plant response rating” value (bedstraw; [12]) was 0. For the same compound, the “Bedstraw plant response rating” value (bedstraw; [13]) was 0, the “Bedstraw plant response rating” value (bedstraw; [15]) was 6 and the “Bedstraw plant response rating” value (bedstraw; [14]) was 0. For the same compound, the “Plant response rating (0 to 10; 0 is no effect, 10 is complete control), Bedstraw” value (bedstraw; Rate 250 g/ha, Postemergence) was 6, the “Crabgrass plant response rating” value (crabgrass; [9]) was 0 and the “Crabgrass plant response rating” value (crabgrass; [10]) was 0. For the same compound, the “Crabgrass plant response rating” value (crabgrass; [11]) was 3, the “Crabgrass plant response rating” value (crabgrass; [12]) was 0 and the “Crabgrass plant response rating” value (crabgrass; [14]) was 2. For the same compound, the “Plant response rating (0 to 10; 0 is no effect, 10 is complete control), Crabgrass” value (crabgrass; Rate 250 g/ha, Postemergence) was 0, the “Ducksalad plant response rating” value (duck salad; [5]) was 0 and the “Ducksalad plant response rating” value (duck salad; [6]) was 0. The “Ducksalad plant response rating” value (duck salad; [7]) was 0, the “Ducksalad plant response rating” value (duck salad; [8]) was 0 and the “Barnyardgrass plant response rating” value (bamyardgrass; [5]) was 0. The “Barnyardgrass plant response rating” value (bamyardgrass; [6]) was 0, the “Barnyardgrass plant response rating” value (bamyardgrass; [7]) was 0 and the “Barnyardgrass plant response rating” value (bamyardgrass; [8]) was 0. The “Corn plant response rating” value (corn; [9]) was 0, the “Corn plant response rating” value (corn; [10]) was 0 and the “Corn plant response rating” value (corn; [11]) was 0. The “Corn plant response rating” value (corn; [12]) was 0, the “Corn plant response rating” value (corn; [13]) was 0 and the “Corn plant response rating” value (corn; [15]) was 0. For the same compound, the “Corn plant response rating” value (corn; [14]) was 0, the “Plant response rating (0 to 10; 0 is no effect, 10 is complete control), Corn” value (corn; Rate 250 g/ha, Postemergence) was 0 and the “Wheat plant response rating” value (wheat; [1]) was 0. For the same compound, the “Wheat plant response rating” value (wheat; [2]) was 0, the “Wheat plant response rating” value (wheat; [3]) was 2 and the “Wheat plant response rating” value (wheat; [4]) was 0. The “Morningglory plant response rating” value (morningglory; [9]) was 0, the “Morningglory plant response rating” value (morningglory; [10]) was 0 and the “Morningglory plant response rating” value (morningglory; [11]) was 0. For the same compound, the “Morningglory plant response rating” value (morningglory; [12]) was 6, the “Morningglory plant response rating” value (morningglory; [14]) was 0 and the “Plant response rating (0 to 10; 0 is no effect, 10 is complete control), Morningglory” value (morningglory; Rate 250 g/ha, Postemergence) was 10. For the same compound, the “Nutsedge plant response rating” value (purple nutsedge; [9]) was 0, the “Nutsedge plant response rating” value (purple nutsedge; [11]) was 0 and the “Nutsedge plant response rating” value (purple nutsedge; [12]) was 0. For the same compound, the “Plant response rating (0 to 10; 0 is no effect, 10 is complete control), Nutsedge” value (purple nutsedge; Rate 250 g/ha, Postemergence) was 0, the “Soybean plant response rating” value (soybean; [1]) was 0 and the “Soybean plant response rating” value (soybean; [2]) was 0. The “Soybean plant response rating” value (soybean; [3]) was 3, the “Soybean plant response rating” value (soybean; [4]) was 0 and the “Giant foxtail plant response rating” value (giant foxtail; [9]) was 0. The “Giant foxtail plant response rating” value (giant foxtail; [10]) was 2, the “Giant foxtail plant response rating” value (giant foxtail; [11]) was 7 and the “Giant foxtail plant response rating” value (giant foxtail; [12]) was 0. The “Giant foxtail plant response rating” value (giant foxtail; [14]) was 7, the “Plant response rating (0 to 10; 0 is no effect, 10 is complete control), Giant foxtail” value (giant foxtail; Rate 250 g/ha, Postemergence) was 0 and the “Redroot pigweed plant response rating” value (pigweed; [9]) was 0. The “Redroot pigweed plant response rating” value (pigweed; [10]) was 0, the “Redroot pigweed plant response rating” value (pigweed; [11]) was 0 and the “Redroot pigweed plant response rating” value (pigweed; [12]) was 0. For the same compound, the “Redroot pigweed plant response rating” value (pigweed; [14]) was 0 and the “Plant response rating (0 to 10; 0 is no effect, 10 is complete control), Redroot pigweed” value (pigweed; Rate 250 g/ha, Postemergence) was 0.
